# Reference: US20250019379A1, “NEW CRYSTAL FORM OF COMPOUND, AND PREPARATION METHOD THEREFOR AND USE THEREOF” (E-nitiate Biopharmaceuticals (Hangzhou) Co., Ltd, priority 2021, published 2025)
# Assay: Dynamic solubility in biological solvents at 37° C.
# Type: physicochemical
# Experimental: (1) Preparation method of FaSSIF: a. Weigh 42 mg NaOH, 395 mg NaH2PO4·H2O and 619 mg NaCl in a 100 mL beaker, add 90 mL deionized water to dissolve: b. Adjust the pH to […]; Dilute to 100 mL with deionized water to obtain FaSSIF blank solvent: c. Weigh 224 mg of Simulated Intestinal Fluid (hereinafter referred to as SIF powder), add 50 mL of the above FaSSIF blank solvent, and stir until completely dissolved; use Dilute the FaSSIF blank solvent to 100 mL to prepare the solvent FaSSIF; d. Let it stand at room temperature for 2 hours before use.
# (2) Preparation method of FeSSIF: a. Weigh 404 mg NaOH, 865 mg glacial acetic acid and 1189 mg NaCl in a 100 mL beaker, add 90 mL deionized water to dissolve: b. Adjust the pH to 5.0 with 1N NaOH or 1N HCl; Dilute to 100 mL with deionized water to obtain FeSSIF blank solvent; c. Weigh 1120 mg SIF powder and add 50 mL of the above FeSSIF blank solvent, stir until dissolved: dilute to 100 mL with FeSSIF blank solvent to obtain FeSSIF solvent d. Let it stand at room temperature before use to ensure a clear solution.
# (3) Preparation method of SGF: a. Weigh 200 mg NaCl in a 100 mL beaker, add 90 mL deionized water to dissolve; b. Adjust the pH to 1.6 with 1N HCl; dilute to 100 mL with deionized water to obtain SGF Blank solvent; c. Weigh 6 mg SIF powder and add 50 mL of the above SGF blank solvent, stir until dissolved: dilute to 100 mL with SGF blank solvent to prepare the solvent SGF: d. Let it stand at room temperature before use to ensure a clear solution.
# (100 rpm). Take 1.3 mL of the suspension (or clarified solution) respectively at 1, 4, and 24 hours, and centrifuge the suspension for 5 minutes. The solid obtained is used for crystal form detection (XRPD), and the supernatant/clarified solution is filtered for solubility testing and pH test.
# Solubility data of the samples were collected using a high-performance liquid chromatograph equipped with an image diode array detector.
smiles,measurement,setting,value
"C[C@@H](O)c1nc2cnc3[nH]ccc3c2n1N1CCC(CC#N)CC1 [Crystalline form A, (R)-2-(1-(2-(1-hydroxyethyl)imidazo[4,5-d]pyrrolo[2,3-b]pyridine-1(6H)-yl)piperidin-4-yl)acetonitrile]",Changes in Crystal form,"FaSSIF, 37° C., 1 h",no change
same,pH,"FaSSIF, 37° C., 1 h",6.41
same,pH,"FaSSIF, 37° C., 4 h",6.49
same,Changes in Crystal form,"FaSSIF, 37° C., 24 h",no change
same,pH,"FaSSIF, 37° C., 24 h",6.54
same,Changes in Crystal form,"FeSSIF, 37° C., 1 h",no change
same,pH,"FeSSIF, 37° C., 1 h",4.92
same,pH,"FeSSIF, 37° C., 4 h",4.95
same,Changes in Crystal form,"FeSSIF, 37° C., 24 h",no change
same,pH,"FeSSIF, 37° C., 24 h",4.99
same,Changes in Crystal form,"SGF, 37° C., 1 h",no change
same,pH,"SGF, 37° C., 1 h",2.92
same,pH,"SGF, 37° C., 4 h",2.99
same,Changes in Crystal form,"SGF, 37° C., 24 h",no change
same,pH,"SGF, 37° C., 24 h",2.95
same,crystal form stability when suspended and stirred,"SGF/FeSSIF/FeSSIF, 24 hours, 37° C.",stable
same,"solubility in three solvents (SGF/FaSSIF/FeSSIF), comparison",within 24 hours at 37° C.,greater than that of crystalline form Q
